The values below come from publication PMC11778240, “Synthesis and preclinical evaluation of tigilanol tiglate analogs as latency-reversing agents for the eradication of HIV” (Science Advances, 2025).

In test [1] the test system is mast cell tumors. The note with it: mast cell tumors in canines; cited from earlier work.
Test [2] deals with interleukin-8. The experiment in a line: IL-8 ELISA, A549 cells. The note with it: 24 hours. The class given is cell-based, Human. How it is done:
Because SUW402 and SUW431 are potent activators of NF-κB, we used an enzyme-linked immunosorbent assay to measure their ability to up-regulate inflammatory cytokine production (tumor necrosis factor–α and interleukin-8). We stimulated A549 cells with SUW402 and SUW431 at the same concentrations used in the NF-κB activation assay: 500 and 50 nM (figs. S1 and S2). […] At 500 or 50 nM, both SUW402 and SUW431 produced only modest levels of interleukin-8, a 15 to 25% increase relative to the DMSO negative control.
Enzyme Linked Immunosorbent Assay (ELISA) for SUW402 and SUW431 mediated IL-8 and […]
In efforts to replicate the conditions of the in vitro NF -κB assay, 5 x 10^4 A549 cells were plated per well on Corning® 96-well Clear Round Bottom TC-treated Microplates in 180 μl of pre-warmed DMEM (4.5 g/L glucose, 10% FBS, and 1% Pen-Strep-Glutamine (100 X, 50 mg/mL)).
Following incubation at 37 °C in 5% CO2 for approximately 24 hours to allow for cell adherence, 1.8 μl of either SUW402 or SUW431 were added in triplicate to their respective wells to achieve a final compound concentration of either 50 nM or 500 nM, the two concentrations tested in the NF-κB assay. 24 hours after compound addition, the microplate containing cells treated with compound was spun at 1800 rpm for 3 minutes to allow for pelleting of cells and other debris before 150 μL of cellular supernatant was aspirated and transferred to a new Corning® 96 -well Clear Round Bottom TC-treated Microplate. Note that if the supernatant is not meant to be immediately analyzed, the microplate containing cellular supernatant should be paraf ilm, wrapped, and stored at -80 °C. Careful attention should be paid to avoiding freeze-thaw cycles. To quantify cytokine secretion within samples, dilutions were performed using Assay Buffer A included in the LEGEND MAX™ Human IL-8 ELISA Kit (Cat # 431507) and LEGEND MAX™ Human TNF-α ELISA Kit (Cat # 430207), respectively.
Immediately before running the assay, reagents were allowed to come to room temperature and diluted. Note that if the supernatant is frozen, it should be removed at this time and allowed to thaw. The 1X Wash Buffer was prepared by diluting the 20X Wash Buf fer with Invitrogen™ UltraPure™ DNase/RNase-Free Distilled Water. The lyophilized human IL-8 and TNF-α standards were reconstituted by adding the appropriate volume of Assay Buffer A to prepare the 20 ng/mL standard stock solutions. The reconstituted stand ards were allowed to sit at room temperature for 20 minutes before being gently vortexed to ensure complete mixing. To generate a standard curve for each cytokine, 500 μL of a 1,000 pg/mL top standard was prepared after which six two -fold serial dilutions of the top standard were performed in 1.7 mL microcentrifuge tubes using Assay […]

Consider `C/C=C(\C)C(=O)O[C@@H]1[C@@H](C)[C@@]2(O)[C@H]([C@@H]3C(C)(C)[C@]13OC(=O)[C@@H](C)CC)[C@@H]1O[C@]1(CO)[C@@H](O)[C@]1(O)C(=O)C(C)=C[C@H]12` [EBC-46, Tigilanol tiglate], for which, in test [1], the cure rate is given as not above 88%.

For the compound `C/C=C(\C)C(=O)O[C@@H]1[C@@H](C)[C@@]2(O)[C@@H](C=C(CO)C[C@]3(O)C(=O)C(C)=C[C@@H]23)[C@@H]2C(C)(C)[C@]12OC(=O)[C@@H](C)CC` [SUW402], the entries for the “IL-8 (ELISA)” value in test [2] (50 nM) and in test [2] (500 nM) were 3352 pg/mL and 3106 pg/mL, respectively.

`C/C=C(\C)C(=O)O[C@@H]1[C@@H](C)[C@@]2(O)[C@H]([C@@H]3C(C)(C)[C@]13OC(=O)Cc1cccc3ccccc13)[C@@H]1O[C@]1(CO)[C@@H](O)[C@]1(O)C(=O)C(C)=C[C@H]12` [SUW431]: the “IL-8 (ELISA)” value in test [2] (50 nM) turned out to be 3369 pg/mL; in test [2] (500 nM), 3232 pg/mL.
